Source: patent US20140309192A1, “MODULATORS OF THE G PROTEIN-COUPLED MAS RECEPTOR AND THE TREATMENT OF DISORDERS RELATED THERETO” (ARENA PHARMACEUTICALS, INC., priority 2011, published 2014)

Legend:
[1] = test system: isolated perfused mouse hearts; assay: Ex vivo coronary flow, Langendorff perfused isolated mouse hearts; details: 1 μM
Method: Coronary flow was measured in male Mas^−/− and Mas^+/+ mice, and in male Sprague-Dawley rats using Langendorff perfused isolated hearts. Freshly isolated hearts were placed on a Langendorff apparatus (Harvard Apparatus) and perfused at a constant pressure of 80 mmHg with a modified Krebs-Henseleit buffer solution (Sigma K3753) and aerated with 95% oxygen and 5% carbon dioxide, pH 7.35-7.4. The temperature was maintained at 37° C. by surrounding the heart with a water-heated glassware chamber. Coronary flow was measured using a flow measurement system (Harvard Apparatus) which included the transit time flow meter and a flow probe built into an adaptor block located at the perfusate inflow port. Data were recorded continuously using an ISOHEART data acquisition system (Harvard Apparatus). After a 20-min equilibration period, Mas compounds were added to the perfusion buffer reservoir at the desired concentration (agonist AR234960 at 1 μM, or inverse agonist AR244555 at 5 μM) and coronary flow was recorded for 10 min

[2] = test system: Male Sprague-Dawley rats; assay: Myocardial ischemia/reperfusion injury in rats, infarct size (Example 4); assay type: in vivo, rat
Method: Adult rats were anesthetized with sodium pentobarbital (50 mg/kg i.p.) and placed in the supine position on a surgery frame with a heating pad (37° C.) beneath. Rats were tracheostomized and ventilated with a SAR-830 small-animal ventilator (Model 683, Harvard Apparatus) to provide room air at a tidal volume of 2.5 mL/stroke and at a rate of 70 stroke/min. Polyethylene catheters were placed in the right internal carotid artery and the external jugular vein for measurement of mean arterial blood pressure and infusion of drug or vehicle, respectively.
Myocardial I/R injury was produced as follows. A left thoracotomy was performed approximately 20 mm from the sternum to expose the heart at the fifth intercostal space. […]
Animals were randomly divided into the following 4 groups: (1-3) low, medium, and high doses of Compound 170 administered by continuous i.v. infusion starting 30 min before coronary artery ligation (n=6 per dose), and (4) 20% HPBCD (vehicle, hydroxypropyl-β-cyclodextrin) administered by continuous i.v. infusion beginning 30 min before coronary artery ligation (n=6). […] Mean arterial blood pressure was measured after stabilization and just prior to drug infusion (baseline) and again following 25 min of drug or vehicle infusion, before coronary artery ligation. […]

Structure (SMILES): COc1cc([N+](=O)[O-])ccc1S(=O)(=O)N1CC(CN2CCN(c3ccccn3)CC2)C(c2cccc(F)c2)C1 (centres unmarked) [AR234960]
- coronary flow, Mas knockout (Mas−/−) mouse hearts [1]: absent
- coronary flow, Mas+/+ mouse hearts [1]: 64 % of baseline
- coronary flow, wild type (Mas+/+) mouse hearts [1]: decreased coronary flow significantly

Structure (SMILES): NC(=O)[C@H](CO)NCc1ccc(C(=O)Nc2ccc(Cl)cc2N2CCN(CCC(F)(F)F)CC2)c(F)c1F [Compound 170, (S)-4-((1-Amino-3-hydroxy-1-oxopropan-2-ylamino)methyl)-N-(4-chloro-2-(4-(3,3,3-trifluoropropyl)piperazin-1-yl)phenyl)-2,3-difluorobenzamide]
- reduction of myocardial infarction size ([2]; FIG. 5, rats subjected to coronary artery ligation and reperfusion): dose dependent effect
- myocardial infarct size after reperfusion compared to vehicle treatment ([2]; medium (1.878 mg/kg loading + 0.492 mg/kg/h) and high dose (6.26 mg/kg loading + 1.64 mg/kg/h) i.v., 30 min ischemia, 2 h reperfusion): significant decrease
